Results published in patent US20040037806A1, “Aldosterone blocker therapy to prevent or treat inflammation-related disorders” (Pharmacia Corporation, priority 2002, published 2004).

Legend:
Format in all cases: in vivo, rat
[1] = Assay A: angiotensin II infusion model, heart histology (hematoxylin&eosin), vascular inflammation and myocardial injury; conditions: Wistar rats, 1% NaCl, angiotensin II 25 ng/min sc, 4 weeks, 10/group; eplerenone 100 mpk; aldosterone replacement in adrenalectomized rats
Text: Assay A: In Vivo Angiotensin II Infusion Model
Male Wistar rats (n=50, 10/group; BW=200 g)
Sacrifice by exanguination after 4 weeks. Blood was be collected in dry tubes for determination of serum electrolytes and in EDTA-containing tubes for measurement of aldosterone and corticosterone levels
Hearts were stained with hematoxylin&eosin and have been analyzed for determination of morphologic abnormalities (i.e. necrosis, vascular injury).

[2] = Assay A: angiotensin II infusion model, systolic blood pressure by tail-cuff; conditions: Wistar rats, 1% NaCl to drink, angiotensin II 25 ng/min sc, 4 weeks; eplerenone 100 mpk; aldosterone given to adrenalectomized, dexamethasone-treated rats
[3] = Assay A: angiotensin II infusion model, urinary Na+/K+ ratio (natriuresis index); conditions: Wistar rats, 1% NaCl, angiotensin II 25 ng/min sc; eplerenone 100 mpk
Text: Electrolyte excretion. The ratio between daily urinary Na^+ excretion and urinary K^+ excretion (U Na^+/K^+ ratio) was used as an index for natriuresis. Urinary Na^+/K^+ ratio was similar in all groups before the start of the treatments, and increased similarly in all animals upon initiation of the high salt diet.

osteopontin = assay: Assay A: osteopontin immunostaining of hearts; conditions: angiotensin II-infused, saline-drinking Wistar rats; eplerenone 100 mpk; aldosterone replacement in adrenalectomized rats
cyclooxygenase-2 (COX-2) = assay: Assay A: cyclooxygenase-2 immunostaining of hearts; conditions: angiotensin II-infused, saline-drinking Wistar rats, eplerenone 100 mpk, aldosterone replacement in adrenalectomized rats

## angiotensin II (DRVYIHPF; Angiotensin-2; UniProt P01019 25-32, looked up) [vasoconstrictive octapeptide infused sc via alzet minipump to induce hypertension]
[1]
  Vascular inflammatory lesions in the coronary arteries / heart: Seven out of the ten
[2]
  Systolic blood pressure: increased
[3]
  Urinary Na+/K+ ratio (index for natriuresis): significantly increased
osteopontin
  Osteopontin expression in the heart (immunostaining): presence of osteopontin in the media of coronary arteries
cyclooxygenase-2 (COX-2)
  Cyclooxygenase-2 expression in the heart (immunostaining): presence of this enzyme in areas of inflammation around the arteries
cyclooxygenase-2 (COX-2); listed as Ang II
  Cyclooxygenase-2 expression in the heart (immunostaining): induction of COX-2 expression
